According to US5411707A, “Vacuum extractor incorporating a condenser column” (priority 1994, dated 1995):
Several values for one entry are separate records, joined by “and”; a condition that tells them apart may be missing. Identical values can stand only once.

settings: 1 gram cod liver oil, 200 ppb spike recovery only
Excerpt: The cryotrap is placed in liquid nitrogen which is replaced as needed throughout the operation. The sample valve is placed in the load position. Samples are placed in the sample chamber and the chamber attached to the apparatus. The coolant/heat valve is adjusted so that the condenser fluid is circulating and at the desired temperature. The vacuum pump is turned on and the vacuum pump valve and sample chamber valve are opened to begin distillation/purging. After five minutes the pressure at the vacuum pump, as measured by a Pirani gauge reads about 0.1 Torr and a Pirani gauge reads less than about 250 Torr at the sample chamber. Distillation continues for another five minutes to complete distillation at which time the sample chamber pressure should be approximately 10 Torr.
Once distillation is complete, the sampling valve is adjusted to the injection position. The liquid nitrogen is removed from the cryotrap and replaced with a beaker of hot (about 90° C.) tap water. The GC/MS then begins to collect data. At this stage, the sample chamber may be removed and the apparatus prepared for another sample. If multiple samples are connected, a new sample chamber may be connected in sequence.

Row | Structure (SMILES) | Oil Recovery (200 ppb spike only)
1 | CCC(C)=O [2-Butanone] | 128 ± 21.5%

settings: in H2O; cited from earlier work

Row | Structure (SMILES) | SOLUBIL. IN H2O
2 | c1ccc2ccccc2c1 [Naphthalene] | 3400 PPM
3 | CC(C)(C)c1ccccc1 [tert-Butlybenzene] | 290 PPM
4 | CCOCC [Diethyl ether] | 60400 PPM
5 | CC(C)c1ccccc1 [iso-Propylbenzene] | 5000 PPM
6 | ClCCOCCCl [bis(2-Chloroethyl) ether] | 1 PPM
7 | Oc1ccccc1Cl [2-Chlorophenol] | 5 PPM
8 | Nc1ccccc1[N+](=O)[O-] [2-Nitroaniline] | 5 PPM
9 | Nc1ccc(Cl)cc1 [4-Chloroaniline] | 5 PPM
10 | Cc1ccccc1N [o-Toluidine] | 17000 PPM
11 | CCCN(CCC)N=O [n-Nitroso-di-n-propylamine] | 5 PPM
12 | BrCBr [Dibromomethane] | 11500 PPM
13 | Cc1ccc(O)c(C)c1 [2,4-Dimethylphenol] | 5 PPM
14 | CCC(C)c1ccccc1 (stereo not shown) [sec-butylbenzene] | 320 PPM
15 | O=NN1CCCCC1 [n-Nitroso-piperidine] | 1000000 PPM
16 | Clc1ccccc1Cl [1,2-Dichlorobenzene] | 10000 PPM
17 | C=C(C)C(=O)OC [Methyl methacrylate] | 16000 PPM
18 | c1ccc2c(c1)oc1ccccc12 [Dibenzofuran] | 1 PPM

Row | Structure (SMILES) | SOLUBIL. IN H2O
19 | OCc1ccccc1 [Benzyl alcohol] | 80000 PPM
20 | CCCCc1ccccc1 [n-Butylbenzene] | 5000 PPM
21 | Cc1cc(O)ccc1Cl [4-Chloro-3-methyl phenol] | 1 PPM
22 | Brc1ccccc1 [Bromobenzene] | 400 PPM
23 | Cc1ccc(C(C)C)cc1 [para-iso-Propyl toluene] | 1 PPM
24 | Nc1ccccc1 [Aniline] | 32500 PPM
25 | C=CCCl [Allyl chloride] | 3600 PPM
26 | Cc1ccccc1O [2-Methylphenol] | 775000 PPM
27 | CCCc1ccccc1 [n-Propylbenzene] | 60 PPM
28 | Clc1cccc(Cl)c1 [1,3-Dichlorobenzene] | 11000 PPM and 10000 PPM
29 | Clc1cccc(Cl)c1Cl [1,2,3-Trichloro benzene] | 1 PPM
30 | C=CC#N [Acrylonitrile] | 73000 PPM
31 | Cc1cc(C)cc(C)c1 [1,3,5-Trimethyl benzene] | 2000 PPM
32 | CC(=O)c1ccccc1 [Acetophenone] | 5500 PPM
33 | Clc1cc(Cl)c(Cl)c(Cl)c1Cl [Pentachlorobenzene] | 1 PPM
34 | O=NN1CCOCC1 [n-Nitrosomorpholine] | 1000000 PPM
35 | Cc1ccc(Cl)cc1 [4-Chlorotoluene] | 5 PPM

same assay, conditions: water; cited from earlier work

Row | Structure (SMILES) | SOLUBIL. IN H2O
36 | Cc1ccccn1 [2-Picoline] | 1000000 PPM
37 | Cc1ccc(C)c(C)c1 [1,2,4-Trimethyl benzene] | 1 PPM
